Measured values taken from PMC6389425 (Journal of molecular biology, 2019).
Where a chain is given by its changes, count along the chain named.

Tests used:
Fp2GUS [1] = target: T1, Fp2GUS (Faecalibacterium prausnitzii, UniProt D4K3H3); assay: isothermal titration calorimetry; assay type: binding
T1 sequence (D4K3H3 1-746): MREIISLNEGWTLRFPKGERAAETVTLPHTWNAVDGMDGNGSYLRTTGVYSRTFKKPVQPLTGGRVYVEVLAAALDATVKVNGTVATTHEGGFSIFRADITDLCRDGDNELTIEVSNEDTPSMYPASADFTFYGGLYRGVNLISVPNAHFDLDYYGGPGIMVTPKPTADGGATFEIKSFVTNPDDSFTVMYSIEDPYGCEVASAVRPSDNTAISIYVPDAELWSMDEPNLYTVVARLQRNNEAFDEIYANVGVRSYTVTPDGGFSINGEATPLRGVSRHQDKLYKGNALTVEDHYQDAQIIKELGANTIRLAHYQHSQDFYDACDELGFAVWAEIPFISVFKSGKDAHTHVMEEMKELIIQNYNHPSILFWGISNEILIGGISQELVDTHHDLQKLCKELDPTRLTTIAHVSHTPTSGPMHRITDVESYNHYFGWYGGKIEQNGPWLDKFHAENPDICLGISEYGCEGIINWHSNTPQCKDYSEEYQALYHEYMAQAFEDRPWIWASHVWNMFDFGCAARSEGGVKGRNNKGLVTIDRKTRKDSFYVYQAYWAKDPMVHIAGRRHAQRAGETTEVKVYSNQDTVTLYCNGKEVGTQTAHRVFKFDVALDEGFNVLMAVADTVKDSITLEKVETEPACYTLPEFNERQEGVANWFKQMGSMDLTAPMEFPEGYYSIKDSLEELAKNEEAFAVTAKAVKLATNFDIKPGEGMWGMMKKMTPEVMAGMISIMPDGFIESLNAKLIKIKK

BvGUS = assay: isothermal titration calorimetry; assay type: binding, Butyrivibrio fibrisolvens; details: 25 °C; 20 mM HEPES, 50 mM NaCl, pH 7.4
Fp2GUS [2] = target: T1, Fp2GUS; assay: fluorescence of 4-methylumbelliferone release, initial rates; assay type: biochemical; details: pH 6.5 HEPES or pH 5.5 acetate; FMN added (5 μL of 25 μM in 50 μL)
Rh2GUS [3] = target: T2, Rh2GUS (Roseburia hominis, UniProt Z9OYF2D7T4, Y182A); assay: as above; assay type: biochemical; details: pH 6.5 HEPES or pH 5.5 acetate; no FMN added
T2 sequence (Z9OYF2D7T4 24-780 Y182A): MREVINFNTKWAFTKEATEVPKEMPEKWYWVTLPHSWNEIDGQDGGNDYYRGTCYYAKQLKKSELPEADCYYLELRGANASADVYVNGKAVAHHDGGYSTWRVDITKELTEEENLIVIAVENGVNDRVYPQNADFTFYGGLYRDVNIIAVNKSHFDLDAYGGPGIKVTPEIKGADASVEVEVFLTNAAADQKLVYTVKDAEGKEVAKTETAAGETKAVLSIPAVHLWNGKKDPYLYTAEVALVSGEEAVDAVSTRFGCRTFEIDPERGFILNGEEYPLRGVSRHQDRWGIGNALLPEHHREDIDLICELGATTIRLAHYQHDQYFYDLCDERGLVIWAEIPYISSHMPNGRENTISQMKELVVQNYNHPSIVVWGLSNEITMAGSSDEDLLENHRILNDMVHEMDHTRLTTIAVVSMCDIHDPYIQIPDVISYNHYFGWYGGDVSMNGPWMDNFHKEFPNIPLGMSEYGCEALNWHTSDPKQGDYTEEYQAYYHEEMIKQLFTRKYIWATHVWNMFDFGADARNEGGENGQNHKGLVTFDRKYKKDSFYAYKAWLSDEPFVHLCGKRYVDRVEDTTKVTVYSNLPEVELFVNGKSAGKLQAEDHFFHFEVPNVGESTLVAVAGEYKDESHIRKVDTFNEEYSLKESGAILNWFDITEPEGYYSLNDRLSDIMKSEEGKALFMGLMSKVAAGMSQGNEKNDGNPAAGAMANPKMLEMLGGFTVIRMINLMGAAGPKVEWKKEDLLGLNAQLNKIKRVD

RiGUS = target: T3, RiGUS (Roseburia inulinivorans, UniProt Z9MQZ9NYJ7); assay: as above; assay type: biochemical; details: pH 6.5 HEPES or pH 5.5 acetate; FMN added (5 μL of 25 μM in 50 μL)
T3 sequence (Z9MQZ9NYJ7 1-736): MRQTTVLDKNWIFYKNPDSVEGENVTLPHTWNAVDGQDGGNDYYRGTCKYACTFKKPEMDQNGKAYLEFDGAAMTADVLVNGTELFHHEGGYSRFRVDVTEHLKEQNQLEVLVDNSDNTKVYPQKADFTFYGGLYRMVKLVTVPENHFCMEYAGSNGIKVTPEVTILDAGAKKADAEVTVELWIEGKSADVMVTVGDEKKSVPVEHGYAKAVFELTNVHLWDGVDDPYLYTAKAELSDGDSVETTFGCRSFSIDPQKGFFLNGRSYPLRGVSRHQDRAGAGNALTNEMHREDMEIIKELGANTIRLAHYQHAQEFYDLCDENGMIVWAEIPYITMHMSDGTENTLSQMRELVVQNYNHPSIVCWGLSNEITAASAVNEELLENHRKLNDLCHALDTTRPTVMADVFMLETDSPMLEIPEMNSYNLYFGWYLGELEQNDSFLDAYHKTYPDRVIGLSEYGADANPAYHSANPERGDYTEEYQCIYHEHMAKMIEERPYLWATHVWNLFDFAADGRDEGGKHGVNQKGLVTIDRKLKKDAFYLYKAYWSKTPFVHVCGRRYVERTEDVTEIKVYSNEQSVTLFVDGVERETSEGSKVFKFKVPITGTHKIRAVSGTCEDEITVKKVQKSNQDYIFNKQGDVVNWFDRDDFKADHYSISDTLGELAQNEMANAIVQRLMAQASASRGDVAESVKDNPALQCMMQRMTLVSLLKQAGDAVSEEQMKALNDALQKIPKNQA

Rg3GUS = target: T4, Rg3GUS (Mediterraneibacter gnavus, UniProt Z9EEQ2OTY4); assay: as above; assay type: biochemical; details: pH 6.5 HEPES or pH 5.5 acetate; FMN added (5 μL of 25 μM in 50 μL)
T4 sequence (Z9EEQ2OTY4 24-777): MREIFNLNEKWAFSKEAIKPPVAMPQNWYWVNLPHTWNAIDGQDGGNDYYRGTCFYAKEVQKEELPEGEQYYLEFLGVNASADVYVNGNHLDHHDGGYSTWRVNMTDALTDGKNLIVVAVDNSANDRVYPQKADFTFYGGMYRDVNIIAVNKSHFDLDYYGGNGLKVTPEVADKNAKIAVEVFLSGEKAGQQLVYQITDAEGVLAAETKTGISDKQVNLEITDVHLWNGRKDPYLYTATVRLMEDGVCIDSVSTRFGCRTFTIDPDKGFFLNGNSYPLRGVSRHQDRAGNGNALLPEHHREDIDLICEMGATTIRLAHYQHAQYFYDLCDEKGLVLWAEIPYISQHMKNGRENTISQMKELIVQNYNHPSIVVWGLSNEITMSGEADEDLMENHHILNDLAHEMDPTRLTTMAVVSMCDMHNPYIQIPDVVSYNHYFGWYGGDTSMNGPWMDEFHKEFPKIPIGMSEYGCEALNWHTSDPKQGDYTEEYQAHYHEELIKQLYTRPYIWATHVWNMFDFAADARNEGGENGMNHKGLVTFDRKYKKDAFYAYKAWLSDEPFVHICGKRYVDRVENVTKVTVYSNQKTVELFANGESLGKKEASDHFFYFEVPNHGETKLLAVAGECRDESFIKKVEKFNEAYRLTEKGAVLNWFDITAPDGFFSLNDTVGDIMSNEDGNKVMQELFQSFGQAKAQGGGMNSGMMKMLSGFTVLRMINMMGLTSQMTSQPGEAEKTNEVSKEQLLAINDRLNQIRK

Rh2GUS [4] = target: T5, Rh2GUS (Roseburia hominis, UniProt Z9OYF2D7T4); assay: as above; assay type: biochemical; details: pH 6.5 HEPES or pH 5.5 acetate; FMN added (5 μL of 25 μM in 50 μL)
T5 sequence (Z9OYF2D7T4 24-780): T2 sequence (Z9OYF2D7T4 24-780 Y182A) with A159Y

Cc1cc2nc3c(=O)[nH]c(=O)nc-3n(C[C@H](O)[C@H](O)[C@H](O)COP(=O)(O)O)c2cc1C [FMN]
Kd (Fp2GUS [1]): 1050 ± 60 nM | Kd (BvGUS): 1270 nM

Cc1cc(=O)oc2cc(O[C@@H]3O[C@H](C(=O)O)[C@@H](O)[C@H](O)[C@H]3O)ccc12 [4-MUG]
KM (Fp2GUS [2]): Each GUS was able to hydrolyze the fluorescent reporter substrate 4-methylumbelliferyl glucuronide (4-MUG) | KM (Rh2GUS [3]): FMN-binding mutants of Rh2GUS, Rg3GUS, and BvGUS all display significantly higher KM values than WT | KM (RiGUS): Each GUS was able to hydrolyze the fluorescent reporter substrate 4-methylumbelliferyl glucuronide (4-MUG) | KM (Rg3GUS): Each GUS was able to hydrolyze the fluorescent reporter substrate 4-methylumbelliferyl glucuronide (4-MUG) | KM (Rh2GUS [4]): Each GUS was able to hydrolyze the fluorescent reporter substrate 4-methylumbelliferyl glucuronide (4-MUG)
